Experimental findings from patent publication US20080234262A1 (Wyeth, priority 2007, published 2008) are described below.

One assay has as its system breast line MDA468. Nature of the assay: In vitro cell culture growth assay (MTS), MDA468. The class given is cell-based, human. The settings on record: Homo sapiens, 72 h, MDA468 cells, three days after drug treatment. The gist of the method:
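MDA468 or LNCap cells received inhibitors one day after plating and were grown for three days. Viable cell density read by MTS conversion, absorbance 490 nm, expressed as percent of control growth versus vehicle-treated cells on the same plate.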

The subject of a further assay is prostate line LNCap. Nature of the assay: In vitro cell culture growth assay (MTS), LNCap. The class given is cell-based, human. The settings on record: Homo sapiens, 72 h, LNCap cells, three days after drug treatment.
The next assay addresses PI3K (Homo sapiens, UniProt P42336). Put plainly: Fluorescence polarization assay for PI3K.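 Note: PI3K kinase reaction on PIP2 with ATP, 30-60 min, product sensed by GST-GRP with red probe in fluorescence polarization (mP), controls without enzyme and at zero time.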 Type of assay: biochemical. (In fluorescence polarisation assays a small probe gives low polarisation when free and higher when bound to something large.)

Structures are written as SMILES. Like-named read-outs stand apart in the source and are kept apart here.

PI3K, sequence (P42336 whole entry): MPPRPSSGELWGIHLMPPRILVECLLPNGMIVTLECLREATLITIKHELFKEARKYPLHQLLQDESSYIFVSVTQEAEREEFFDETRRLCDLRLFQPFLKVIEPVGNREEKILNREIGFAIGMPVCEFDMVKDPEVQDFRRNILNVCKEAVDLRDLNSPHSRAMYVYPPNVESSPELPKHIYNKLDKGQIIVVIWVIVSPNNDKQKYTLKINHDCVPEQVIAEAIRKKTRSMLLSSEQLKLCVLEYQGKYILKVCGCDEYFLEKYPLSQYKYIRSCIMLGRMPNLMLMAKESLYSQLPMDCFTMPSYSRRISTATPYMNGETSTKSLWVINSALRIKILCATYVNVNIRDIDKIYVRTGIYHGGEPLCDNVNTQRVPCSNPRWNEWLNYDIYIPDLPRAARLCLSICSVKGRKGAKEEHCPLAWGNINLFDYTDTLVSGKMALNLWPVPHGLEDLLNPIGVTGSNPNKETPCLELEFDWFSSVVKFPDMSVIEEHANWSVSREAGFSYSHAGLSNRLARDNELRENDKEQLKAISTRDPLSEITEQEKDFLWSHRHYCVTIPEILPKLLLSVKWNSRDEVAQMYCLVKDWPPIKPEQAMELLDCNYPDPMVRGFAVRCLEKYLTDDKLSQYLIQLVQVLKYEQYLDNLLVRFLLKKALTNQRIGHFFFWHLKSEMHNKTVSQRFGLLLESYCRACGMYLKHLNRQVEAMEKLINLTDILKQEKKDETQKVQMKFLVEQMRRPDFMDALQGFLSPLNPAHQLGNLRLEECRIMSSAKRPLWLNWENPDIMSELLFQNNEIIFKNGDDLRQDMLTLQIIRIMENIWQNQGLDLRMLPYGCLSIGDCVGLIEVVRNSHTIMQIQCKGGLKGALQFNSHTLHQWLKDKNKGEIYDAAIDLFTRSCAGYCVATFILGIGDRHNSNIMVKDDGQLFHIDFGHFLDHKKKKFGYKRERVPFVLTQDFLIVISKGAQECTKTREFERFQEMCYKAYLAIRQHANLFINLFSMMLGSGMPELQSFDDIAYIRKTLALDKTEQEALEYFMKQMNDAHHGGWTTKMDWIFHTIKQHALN
PI3K, sequence (P27986 whole entry partner): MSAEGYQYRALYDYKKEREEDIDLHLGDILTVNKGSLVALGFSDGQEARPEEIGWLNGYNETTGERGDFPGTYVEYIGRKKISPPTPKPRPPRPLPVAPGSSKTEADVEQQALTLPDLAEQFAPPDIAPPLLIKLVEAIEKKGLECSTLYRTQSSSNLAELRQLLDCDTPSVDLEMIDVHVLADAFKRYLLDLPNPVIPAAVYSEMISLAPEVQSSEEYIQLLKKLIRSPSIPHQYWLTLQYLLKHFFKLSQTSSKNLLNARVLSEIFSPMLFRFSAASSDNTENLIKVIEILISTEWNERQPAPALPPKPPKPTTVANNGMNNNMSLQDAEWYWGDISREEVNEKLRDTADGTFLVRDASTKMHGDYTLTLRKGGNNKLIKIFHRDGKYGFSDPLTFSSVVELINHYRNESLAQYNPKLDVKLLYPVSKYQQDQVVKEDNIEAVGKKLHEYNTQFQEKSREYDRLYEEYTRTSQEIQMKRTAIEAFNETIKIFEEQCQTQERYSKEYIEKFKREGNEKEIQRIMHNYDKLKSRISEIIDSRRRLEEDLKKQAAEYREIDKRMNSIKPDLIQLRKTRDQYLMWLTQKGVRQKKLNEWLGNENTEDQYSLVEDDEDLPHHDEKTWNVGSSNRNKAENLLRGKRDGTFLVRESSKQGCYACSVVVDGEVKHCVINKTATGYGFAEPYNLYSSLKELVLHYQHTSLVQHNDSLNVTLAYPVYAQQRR

In general, IC50 refers to the concentration needed to halve the response being measured. Regarding `CC(C)C(=O)N1CCC(n2ncc3c(N4CCOCC4)nc(-c4ccc(NC(=O)NCCO)cc4)nc32)CC1` [Compound 823, 1-(2-hydroxyethyl)-3-{4-[1-(1-isobutyrylpiperidin-4-yl)-4-morpholin-4-yl-1H-pyrazolo[3,4-d]pyrimidin-6-yl]phenyl}urea], the IC50 came out at 320 nM with breast line MDA468; 3500 nM in the assay with prostate line LNCap (LNCaP); 571 nM at PI3K (PI3Kα, read-out: PI3Kα IC50).
Consider `COC(=O)N1CCC(n2ncc3c(N4CCOCC4)nc(-c4ccc(NC(=O)Oc5ccccc5F)cc4)nc32)CC1` [Compound 866, methyl 4-[6-(4-{[(2-fluorophenoxy)carbonyl]amino}phenyl)-4-morpholin-4-yl-1H-pyrazolo[3,4-d]pyrimidin-1-yl]piperidine-1-carboxylate], for which the IC50 was determined as 30000 nM in the assay with breast line MDA468; 12000 nM in the assay on prostate line LNCap; 12000 nM against PI3K (PI3Kα IC50, PI3Kα).
With `CNC(=O)Nc1ccc(-c2nc(N3CCOCC3)c3cnn(C4CCN(C(=O)c5cccnc5)CC4)c3n2)cc1` [Compound 219], the IC50 is 600 nM in the assay with breast line MDA468; 150 nM with prostate line LNCap (LNCaP); 548 nM at PI3K (PI3Kα, read-out: PI3Kα IC50).
As for `CN/C(=N\c1ccc(-c2nc(N3CCOCC3)c3cnn(C4CCN(C(=O)OC(C)C)CC4)c3n2)cc1)SC` [Compound 832, isopropyl 4-[6-(4-{[(1E)-(methylamino)(methylthio)methylene]amino}phenyl)-4-morpholin-4-yl-1H-pyrazolo[3,4-d]pyrimidin-1-yl]piperidine-1-carboxylate], the IC50 was found to be 3700 nM in the assay on breast line MDA468; 2000 nM with prostate line LNCap (LNCaP); 8000 nM at PI3K (PI3Kα, read-out: PI3Kα IC50).
On to `CCNC(=O)Nc1ccc(-c2nc(N3CCOC[C@@H]3C)c3cnn(C4CCN(C(=O)OCC)CC4)c3n2)cc1` [Compound 894, ethyl 4-(6-{4-[(ethylcarbamoyl)amino]phenyl}-4-[(3S)-3-methylmorpholin-4-yl]-1H-pyrazolo[3,4-d]pyrimidin-1-yl)piperidine-1-carboxylate], for which the IC50 in the assay with breast line MDA468 came to 960 nM; in the assay with prostate line LNCap (LNCaP), 100 nM; at PI3K (PI3Kα, read-out: PI3Kα IC50), 553 nM.
Turning to `O=C(Nc1ccc(-c2nc(N3CCOCC3)c3cnn(C4CCN(C(=O)c5cccnc5)CC4)c3n2)cc1)Nc1ccccn1` [Compound 592, 1-(4-{4-morpholin-4-yl-1-[1-(pyridin-3-ylcarbonyl)piperidin-4-yl]-1H-pyrazolo[3,4-d]pyrimidin-6-yl}phenyl)-3-pyridin-2-ylurea], the IC50 stood at 700 nM in the assay with breast line MDA468; 95 nM with prostate line LNCap (LNCaP); 260 nM on PI3K (PI3Kα, read-out: PI3Kα IC50).
Consider `CCCOC(=O)N1CCC(n2ncc3c(N4CCOCC4)nc(-c4ccc(NC(=O)NC5CC5)cc4)nc32)CC1` [Compound 856, propyl 4-(6-{4-[(cyclopropylcarbamoyl)amino]phenyl}-4-morpholin-4-yl-1H-pyrazolo[3,4-d]pyrimidin-1-yl)piperidine-1-carboxylate], for which the IC50 amounted to 510 nM in the assay with breast line MDA468; 90 nM with prostate line LNCap (LNCaP); 770 nM on PI3K (PI3Kα, read-out: PI3Kα IC50).
Consider `COC(=O)N1CCC(n2ncc3c(N4CCOCC4)nc(-c4ccc(NC(=O)Nc5cccnc5)cc4)nc32)CC1` [Compound 737, methyl 4-(4-morpholin-4-yl-6-{4-[(pyridin-3-ylcarbamoyl)amino]phenyl}-1H-pyrazolo[3,4-d]pyrimidin-1-yl)piperidine-1-carboxylate], for which the IC50 in the assay with breast line MDA468 was less than 27 nM; in the assay with prostate line LNCap (LNCaP) it was less than 27 nM; on PI3K (PI3Kα, read-out: PI3Kα IC50) it was 34 nM.
`CNC(=O)Nc1ccc(-c2nc(N3CCOCC3)c3cnn(C4CCN(Cc5cccnc5)CC4)c3n2)cc1F` [Example 350, 1-(2-fluoro-4-{4-morpholin-4-yl-1-[1-(pyridin-3-ylmethyl)piperidin-4-yl]-1H-pyrazolo[3,4-d]pyrimidin-6-yl}phenyl)-3-methylurea]: the IC50 amounted to 200 nM in the assay on breast line MDA468; 27 nM with prostate line LNCap (LNCaP); 246 nM at PI3K (PI3Kα, read-out: PI3Kα IC50).
Take `c1cc(CN2CCC(n3ncc4c(N5CCOCC5)nc(-c5ccc6[nH]ccc6c5)nc43)CC2)ccn1` [Compound 179]: the IC50 was 1800 nM in the assay with breast line MDA468; 600 nM with prostate line LNCap (LNCaP); 649 nM on PI3K (PI3Kα, read-out: PI3Kα IC50).
On to `CNC(=O)Nc1ccc(-c2nc(N3CCOCC3)c3cnn(C4CCN(C(=O)c5cccc(OC)c5)CC4)c3n2)cc1` [Compound 610, 1-(4-{1-[1-(3-methoxybenzoyl)piperidin-4-yl]-4-morpholin-4-yl-1H-pyrazolo[3,4-d]pyrimidin-6-yl}phenyl)-3-methylurea], for which the IC50 in the assay on breast line MDA468 was found to be 340 nM; in the assay on prostate line LNCap (LNCaP), 35 nM; at PI3K (PI3Kα, read-out: PI3Kα IC50) it was 75 nM.
As to `O=C(c1ccco1)N1CCC(n2ncc3c(N4CCOCC4)nc(-c4cccc(O)c4)nc32)CC1` [Example 22], the IC50 in the assay with breast line MDA468 was determined as 900 nM; with prostate line LNCap (LNCaP) it was 300 nM; at PI3K (PI3Kα, read-out: PI3Kα IC50), 31 nM.
`CNC(=O)Nc1ccc(-c2nc(N3CCOCC3)c3cnn(C4CCN(CC(=O)c5ccccc5)CC4)c3n2)cc1` [Compound 577, 1-methyl-3-(4-{4-morpholin-4-yl-1-[1-(2-oxo-2-phenylethyl)piperidin-4-yl]-1H-pyrazolo[3,4-d]pyrimidin-6-yl}phenyl)urea]: the half-inhibitory concentration (IC50) was 180 nM in the assay on breast line MDA468; less than 27 nM with prostate line LNCap (LNCaP); 22 nM on PI3K (PI3Kα, read-out: PI3Kα IC50).
As for `CN(C)CCCn1ncc2c(N3CCOCC3)nc(-c3cccc(O)c3)nc21` [Compound 163], the IC50 with breast line MDA468 was 6000 nM; with prostate line LNCap (LNCaP), 1500 nM; at PI3K (PI3Kα, read-out: PI3Kα IC50), 60 nM.
With `Clc1cc(-c2nc(N3CCOCC3)c3cnn(C4CCN(Cc5ccccc5)CC4)c3n2)ccn1` [Compound 157], the IC50 with breast line MDA468 stood at 60000 nM; in the assay on prostate line LNCap (LNCaP) it was 33000 nM; at PI3K (PI3Kα, read-out: PI3Kα IC50), 1030 nM.
Turning to `O=C(N1CCCC1)N1CCC(n2ncc3c(N4CCOCC4)nc(-c4ccc5[nH]ccc5c4)nc32)CC1` [Compound 123], the IC50 with breast line MDA468 turned out to be 1800 nM; in the assay with prostate line LNCap (LNCaP), 450 nM; on PI3K (PI3Kα, read-out: PI3Kα IC50) it was 1300 nM.
With `C1=C(c2nc(N3CCOCC3)c3cnn(-c4ccccc4)c3n2)CCOC1` [Compound 98], the 50% inhibitory concentration (IC50) in the assay on breast line MDA468 was 33000 nM; in the assay with prostate line LNCap (LNCaP), 60000 nM; on PI3K (PI3Kα, read-out: PI3Kα IC50), 754 nM.
As for `CNCCNC(=O)Nc1ccc(-c2nc(N3CCOCC3)c3cnn(C4CCN(C(=O)c5cccnc5)CC4)c3n2)cc1` [Example 346, 1-[2-(methylamino)ethyl]-3-(4-{4-morpholin-4-yl-1-[1-(pyridin-3-ylcarbonyl)piperidin-4-yl]-1H-pyrazolo[3,4-d]pyrimidin-6-yl}phenyl)urea], the IC50 is 9000 nM in the assay on breast line MDA468; 5000 nM in the assay with prostate line LNCap (LNCaP); 45 nM at PI3K (PI3Kα, read-out: PI3Kα IC50).
As to `Brc1ccc(CN2CCC(n3ncc4c(N5CCOCC5)nc(-c5ccc6[nH]ccc6c5)nc43)CC2)cn1` [Example 173, 1-{1-[(6-bromopyridin-3-yl)methyl]piperidin-4-yl}-6-(1H-indol-5-yl)-4-morpholin-4-yl-1H-pyrazolo[3,4-d]pyrimidine], the IC50 in the assay with breast line MDA468 was determined as 2700 nM; in the assay on prostate line LNCap (LNCaP), 1200 nM; at PI3K (PI3Kα, read-out: PI3Kα IC50), 262 nM.
For `CCNC(=O)Nc1ccc(-c2nc(N3CCOCC3)c3cnn(C4CCN(C(=O)OC(C)(C)C)CC4)c3n2)cc1` [Compound 764, tert-butyl 4-(6-{4-[(ethylcarbamoyl)amino]phenyl}-4-morpholin-4-yl-1H-pyrazolo[3,4-d]pyrimidin-1-yl)piperidine-1-carboxylate], the IC50 stood at 370 nM with breast line MDA468; 115 nM in the assay with prostate line LNCap (LNCaP); 738 nM at PI3K (PI3Kα, read-out: PI3Kα IC50).
As to `NCCNC(=O)Nc1ccc(-c2nc(N3CCOCC3)c3cnn(C4CCN(Cc5ccccc5)CC4)c3n2)cc1` [Compound 512, 1-(2-aminoethyl)-3-{4-[1-(1-benzylpiperidin-4-yl)-4-morpholin-4-yl-1H-pyrazolo[3,4-d]pyrimidin-6-yl]phenyl}urea], the IC50 with breast line MDA468 was found to be 2700 nM; with prostate line LNCap (LNCaP), 2000 nM; on PI3K (PI3Kα, read-out: PI3Kα IC50), 14 nM.
With `O=C(NCCF)Nc1cc(F)c(-c2nc(N3CCOCC3)c3cnn(C4CCN(C(=O)c5cccnc5)CC4)c3n2)cc1F` [Example 467, 1-(2,5-difluoro-4-{4-morpholin-4-yl-1-[1-(pyridin-3-ylcarbonyl)piperidin-4-yl]-1H-pyrazolo[3,4-d]pyrimidin-6-yl}phenyl)-3-(2-fluoroethyl)urea], the IC50 in the assay on breast line MDA468 worked out at 2200 nM; with prostate line LNCap (LNCaP), 1200 nM; on PI3K (PI3Kα, read-out: PI3Kα IC50) it was 2980 nM.
As for `CNC(=O)Nc1ccc(-c2nc(N3CCOCC3)c3cnn(C4CCN(Cc5ccncc5)CC4)c3n2)cc1` [Compound 426, 1-methyl-3-(4-{4-morpholin-4-yl-1-[1-(pyridin-4-ylmethyl)piperidin-4-yl]-1H-pyrazolo[3,4-d]pyrimidin-6-yl}phenyl)urea], the IC50 with breast line MDA468 stood at 700 nM; with prostate line LNCap (LNCaP), 60 nM; on PI3K (PI3Kα, read-out: PI3Kα IC50), 112 nM.
In the case of `CNC(=O)Nc1ccc(-c2nc(N3CCOCC3)c3cnn(C4CCN(C(=O)c5ccc(OC)cc5)CC4)c3n2)cc1` [Compound 609, 1-(4-{1-[1-(4-methoxybenzoyl)piperidin-4-yl]-4-morpholin-4-yl-1H-pyrazolo[3,4-d]pyrimidin-6-yl}phenyl)-3-methylurea], the IC50 was found to be 350 nM with breast line MDA468; 45 nM in the assay on prostate line LNCap (LNCaP); 54 nM at PI3K (PI3Kα, read-out: PI3Kα IC50).
For the compound `CNCCNC(=O)Nc1ccc(-c2nc(N3CCOCC3)c3cnn(C4CCN(Cc5cccnc5)CC4)c3n2)cc1` [Example 342, 1-[2-(methylamino)ethyl]-3-(4-{4-morpholin-4-yl-1-[1-(pyridin-3-ylmethyl)piperidin-4-yl]-1H-pyrazolo[3,4-d]pyrimidin-6-yl}phenyl)urea], the IC50 in the assay with breast line MDA468 came to 1100 nM; with prostate line LNCap (LNCaP), 1200 nM; on PI3K (PI3Kα, read-out: PI3Kα IC50) it was 29 nM.
Take `CNC(=O)Nc1ccc(-c2nc(N3CCOCC3)c3cnn(C4CCN(Cc5ccco5)CC4)c3n2)cc1` [Example 402, 1-(4-{1-[1-(2-furylmethyl)piperidin-4-yl]-4-morpholin-4-yl-1H-pyrazolo[3,4-d]pyrimidin-6-yl}phenyl)-3-methylurea]: the concentration for half-maximal inhibition (IC50) in the assay on breast line MDA468 came to 500 nM; in the assay with prostate line LNCap (LNCaP) it was 27 nM; at PI3K (PI3Kα, read-out: PI3Kα IC50) it was 63 nM.
